Results on 12 compounds are retold here after patent publication US20250129074A1, “CHIMERIC COMPOUND FOR TARGETED DEGRADATION OF ANDROGEN RECEPTOR PROTEIN, PREPARATION METHOD THEREFOR, AND MEDICAL USE THEREOF” (Jiangsu Hengrui Pharmaceuticals Co., Ltd., priority 2021, published 2025).

The target in one test is T1, androgen receptor (AR) (Homo sapiens, UniProt P10275, T878A).
T1 construct: host or cells: LNCaP human prostate cancer cells
T1 sequence (P10275 1-920 T878A): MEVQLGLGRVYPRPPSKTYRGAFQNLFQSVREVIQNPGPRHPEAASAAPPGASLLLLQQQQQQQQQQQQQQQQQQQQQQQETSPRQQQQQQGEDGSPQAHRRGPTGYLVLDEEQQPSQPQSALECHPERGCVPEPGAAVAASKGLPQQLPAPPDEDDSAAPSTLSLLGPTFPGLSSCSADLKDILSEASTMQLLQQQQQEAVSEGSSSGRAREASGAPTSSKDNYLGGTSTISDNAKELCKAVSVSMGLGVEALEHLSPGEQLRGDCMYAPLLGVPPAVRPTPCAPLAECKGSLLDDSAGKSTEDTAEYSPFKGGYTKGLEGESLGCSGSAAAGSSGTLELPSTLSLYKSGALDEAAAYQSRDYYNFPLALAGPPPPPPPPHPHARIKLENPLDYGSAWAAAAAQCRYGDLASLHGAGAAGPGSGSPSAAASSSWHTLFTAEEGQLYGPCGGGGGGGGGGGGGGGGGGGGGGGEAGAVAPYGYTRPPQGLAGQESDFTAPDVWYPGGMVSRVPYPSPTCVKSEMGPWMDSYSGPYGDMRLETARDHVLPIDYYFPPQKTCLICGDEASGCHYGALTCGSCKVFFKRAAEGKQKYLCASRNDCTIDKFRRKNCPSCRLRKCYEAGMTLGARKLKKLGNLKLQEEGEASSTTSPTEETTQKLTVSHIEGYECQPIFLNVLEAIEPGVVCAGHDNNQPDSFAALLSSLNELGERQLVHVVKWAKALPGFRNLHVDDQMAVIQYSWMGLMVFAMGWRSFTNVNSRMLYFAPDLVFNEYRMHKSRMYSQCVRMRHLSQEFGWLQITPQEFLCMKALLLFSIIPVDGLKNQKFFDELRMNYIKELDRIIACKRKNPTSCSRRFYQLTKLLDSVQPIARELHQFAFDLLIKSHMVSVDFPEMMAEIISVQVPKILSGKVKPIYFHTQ
As to the kind of experiment: Degradation activity on androgen receptor in LNCaP cells (AR ELISA). In kind it is cell-based. The note with it: 0.1 nM R1881, 24 hours; for DC50: read-out: LNCaP DC50; for Dmax: read-out: Max (maximum AR degradation rate). As to the method: The plate was incubated in a 37° C., 5% CO2 cell incubator for three days. […] A blank control cell well containing 0.5% DMSO was set up. The plate was incubated in a 37° C., 5% CO2 cell incubator for 24 hours. […] The lysate was well mixed by pipetting up and down and then centrifuged at 4000 rpm at 4° C. for 10 minutes. […] The plate was sealed and incubated in a 37° C. incubator for 1 hour. […] The plate was sealed and then incubated in a 37° C. incubator for 30 minutes.
Background: An ELISA detects its analyte on a solid surface through an enzyme-linked reagent.

The next test relates to LNCaP cells. Description: Inhibition of LNCaP proliferation (CellTiter-Glo). The class given is cell-based. Particulars: Homo sapiens, 144 h, 0.1 nM R1881, six days; for Emax: read-out: Max (maximum proliferation inhibition rate). As to the method:
The plate was incubated in a 37° C., 5% CO2 cell incubator for three days. […] A blank control cell well containing 0.5% DMSO and a cell-free vehicle control well were set up. The plate was incubated in a 37° C., 5% CO2 cell incubator for six days.
On the technique in general: Cellular ATP, detected with luciferase, serves as a proxy for viable cell number.

Consider `C[C@H]1CC2(CCN(c3ccc(C(=O)N4CCC(CN5CCC(c6ccc(NC7CCC(=O)NC7=O)cc6F)CC5)CC4)cc3)CC2)CN1c1ccc(C#N)c(Cl)c1` (stereo partly drawn) [Example 27, 2-Chloro-4-((3S)-8-(4-(4-((4-(4-((2,6-dioxopiperidin-3-yl)amino)-2-fluorophenyl)piperidin-1-yl)methyl)piperidine-1-carbonyl)phenyl)-3-methyl-2,8-diazaspiro[4.5]decan-2-yl)benzonitrile], for which, on androgen receptor (AR), the DC50 (in general, the concentration at which degradation of the target reaches its halfway point) is 7.7 nM and the Dmax turned out to be 96%. For the same compound, in the test with LNCaP cells, 7.9 nM corresponded to half-maximal inhibition (IC50) and the Emax was determined as 64%.

`C[C@H]1CC2(CCN(c3ccc(C(=O)N4CCC5(CCC(N6CCN(c7ccc(N8CCC(=O)NC8=O)cc7)CC6)CC5)CC4)cc3)CC2)CN1c1ccc(C#N)c(Cl)c1` [Example 29, (S)-2-Chloro-4-(8-(4-(9-(4-(4-(2,4-dioxotetrahydropyrimidin-1(2H)-yl)phenyl)piperazin-1-yl)-3-azaspiro[5.5]undecane-3-carbonyl)phenyl)-3-methyl-2,8-diazaspiro[4.5]decan-2-yl)benzonitrile]: on androgen receptor (AR), the DC50 came out at 12 nM and the Dmax was determined as 93%. Moreover, in the test with LNCaP cells, inhibition was half-maximal at 81 nM (IC50) and the Emax came to 45%.

For the compound `C[C@H]1CC2(CCN(c3ccc(C(=O)N4CCC5(CC4)CC(N4CCN(c6ccc(N7CCC(=O)NC7=O)cc6)CC4)C5)cc3F)CC2)CN1c1ccc(C#N)c(Cl)c1` [Example 30, (S)-2-Chloro-4-(8-(4-(2-(4-(4-(2,4-dioxotetrahydropyrimidin-1(2H)-yl)phenyl)piperazin-1-yl)-7-azaspiro[3.5]nonane-7-carbonyl)-2-fluorophenyl)-3-methyl-2,8-diazaspiro[4.5]decan-2-yl)benzonitrile], at androgen receptor (AR), the DC50 stood at 4.2 nM and the Dmax was 96%. In the test with LNCaP cells, the concentration for half-maximal inhibition (IC50) – broadly, the concentration at which inhibition is half-maximal – was determined as 7.2 nM and the Emax amounted to 52%.

Regarding `C[C@H]1CC2(CCN(c3ccc(C(=O)N4CCC5(CC4)CC(N4CCN(c6ccc(N7CCC(=O)NC7=O)cc6)CC4)C5)c(F)c3)CC2)CN1c1ccc(C#N)c(Cl)c1` [Example 31, (S)-2-Chloro-4-(8-(4-(2-(4-(4-(2,4-dioxotetrahydropyrimidin-1(2H)-yl)phenyl)piperazin-1-yl)-7-azaspiro[3.5]nonane-7-carbonyl)-3-fluorophenyl)-3-methyl-2,8-diazaspiro[4.5]decan-2-yl)benzonitrile], on androgen receptor (AR), the DC50 is 8.7 nM and the Dmax worked out at 94%. In addition, in the test with LNCaP cells, the IC50 was determined as 12 nM and the Emax was 57%.

Regarding `C[C@H]1CC2(CCN(c3ccc(C(=O)N4CCC5(CC4)CC(N4CCN(c6ccc(N7CCC(=O)NC7=O)cc6)CC4)C5)nc3)CC2)CN1c1ccc(C#N)c(Cl)c1` [Example 32, (S)-2-Chloro-4-(8-(6-(2-(4-(4-(2,4-dioxotetrahydropyrimidin-1(2H)-yl)phenyl)piperazin-1-yl)-7-azaspiro[3.5]nonane-7-carbonyl)pyridin-3-yl)-3-methyl-2,8-diazaspiro[4.5]decan-2-yl)benzonitrile], at androgen receptor (AR), the DC50 is 1 nM and the Dmax turned out to be 95%. Moreover, in the test on LNCaP cells, half-maximal inhibition (IC50) required 3.1 nM and the Emax was 63%.

Consider `C[C@H]1CC2(CCN(c3ccc(C(=O)N4CCC5(CC4)CC(N4CCN(c6ccc(N7CCC(=O)NC7=O)cc6)CC4)C5)cn3)CC2)CN1c1ccc(C#N)c(Cl)c1` [Example 33, (S)-2-Chloro-4-(8-(5-(2-(4-(4-(2,4-dioxotetrahydropyrimidin-1(2H)-yl)phenyl)piperazin-1-yl)-7-azaspiro[3.5]nonane-7-carbonyl)pyridin-2-yl)-3-methyl-2,8-diazaspiro[4.5]decan-2-yl]benzonitrile], for which, on androgen receptor (AR), the DC50 stood at 2.5 nM and the Dmax was determined as 95%. For the same compound, in the test with LNCaP cells, half-maximal inhibition (IC50) was put at 3.5 nM and the Emax was found to be 58%.

As to `C[C@H]1CC2(CCN(c3ccc(C(=O)N4CCC5(CC4)CC(N4CCN(c6ccc(C7CCC(=O)NC7=O)cc6)CC4)C5)cc3)CC2)CN1c1ccc(C#N)c(Cl)c1` (stereo partly drawn) [Example 34, 2-Chloro-4-((3S)-8-(4-(2-(4-(4-(2,6-dioxopiperidin-3-yl)phenyl)piperazin-1-yl)-7-azaspiro[3.5]nonane-7-carbonyl)phenyl)-3-methyl-2,8-diazaspiro[4.5]decan-2-yl)benzonitrile], on androgen receptor (AR), the DC50 came out at 5 nM and the Dmax was 96%. Further, in the test with LNCaP cells, the half-maximal inhibitory concentration (IC50) came out at 12 nM and the Emax amounted to 60%.

Take `C[C@H]1CC2(CCN(c3ccc(C(=O)N4CCC5(CC4)CC(N4CCN(c6cccc(N7CCC(=O)NC7=O)c6)CC4)C5)cc3)CC2)CN1c1ccc(C#N)c(Cl)c1` [Example 35, (S)-2-Chloro-4-(8-(4-(2-(4-(3-(2,4-dioxotetrahydropyrimidin-1(2H)-yl)phenyl)piperazin-1-yl)-7-azaspiro[3.5]nonane-7-carbonyl)phenyl)-3-methyl-2,8-diazaspiro[4.5]decan-2-yl)benzonitrile]: on androgen receptor (AR), the DC50 was 5.2 nM and the Dmax worked out at 88%. Also, in the test with LNCaP cells, inhibition was half-maximal at 31 nM (IC50) and the Emax is 57%.

With `C[C@H]1CC2(CCN(c3ccc(C(=O)N4CCC5(CC4)CC(N4CCN(c6cccc(NC7CCC(=O)NC7=O)c6)CC4)C5)cc3F)CC2)CN1c1ccc(C#N)c(Cl)c1` (stereo partly drawn) [Example 36, 2-Chloro-4-((3S)-8-(4-(2-(4-(3-((2,6-dioxopiperidin-3-yl)amino)phenyl)piperazin-1-yl)-7-azaspiro[3.5]nonane-7-carbonyl)-2-fluorophenyl)-3-methyl-2,8-diazaspiro[4.5]decan-2-yl)benzonitrile], on androgen receptor (AR), the half-maximal degradation concentration (DC50) was 5.3 nM and the Dmax is 97%. Besides, in the test on LNCaP cells, the half-maximal inhibitory concentration (IC50) was found to be 35 nM and the Emax came to 57%.

On to `C[C@H]1CC2(CCN(c3ccc(C(=O)N4CCN(CC5CCN(c6cccc(NC7CCC(=O)NC7=O)c6)CC5)CC4)cc3)CC2)CN1c1ccc(C#N)c(Cl)c1` (stereo partly drawn) [Example 37, 2-Chloro-4-((3S)-8-(4-(4-((1-(3-((2,6-dioxopiperidin-3-yl)amino)phenyl)piperidin-4-yl)methyl)piperazine-1-carbonyl)phenyl)-3-methyl-2,8-diazaspiro[4.5]decan-2-yl)benzonitrile], for which, at androgen receptor (AR), the DC50 was determined as 7.6 nM and the Dmax was found to be 97%. In addition, in the test on LNCaP cells, the concentration for half-maximal inhibition (IC50) was found to be 125 nM and the Emax was determined as 73%.

For the compound `C[C@H]1CC2(CCN(c3ccc(C(=O)N4CCC(CN5CCN(c6cccc(NC7CCC(=O)NC7=O)c6)CC5)CC4)cc3)CC2)CN1c1ccc(C#N)c(C(F)(F)F)c1` (stereo partly drawn) [Example 41, 4-((3S)-8-(4-(4-((4-(3-((2,6-Dioxopiperidin-3-yl)amino)phenyl)piperazin-1-yl)methyl)piperidine-1-carbonyl)phenyl)-3-methyl-2,8-diazaspiro[4.5]decan-2-yl)-2-(trifluoromethyl)benzonitrile], at androgen receptor (AR), the DC50 is 17.1 nM and the Dmax came out at 96%. In the test with LNCaP cells, the half-inhibitory concentration (IC50) was 98 nM and the Emax is 56%.

On to `C[C@H]1CC2(CCN(c3ccc(C(=O)N4CCN(CC(=O)Nc5cccc(NC6CCC(=O)NC6=O)c5)CC4)cc3)CC2)CN1c1ccc(C#N)c(Cl)c1` (stereo partly drawn) [Example 42, 2-(4-(4-((S)-2-(3-Chloro-4-cyanophenyl)-3-methyl-2,8-diazaspiro[4.5]decan-8-yl)benzoyl)piperazin-1-yl)-N-(3-((2,6-dioxopiperidin-3-yl)amino)phenyl)acetamide], for which, at androgen receptor (AR), the half-maximal degradation concentration (DC50) stood at 4.2 nM and the Dmax is 90%. Also, in the test with LNCaP cells, the IC50 amounted to 39 nM and the Emax amounted to 50%.
